Laboratory results as given in US20230271949A1, “GLP-1R MODULATING COMPOUNDS” (ASCLETIS BIOSCIENCE CO., LTD., priority 2022, published 2023).

These compounds were tested against T1, GLP-1R (Homo sapiens, UniProt P43220) (assay: Tag-lite binding assay (competition with GLP-1 receptors red agonist)). Conditions: HEK293 GLP-1 cells labeled with SNAP-Lumi4-Tb; red agonist 4.917 nM; 23° C., 2 h.
Experimental: B. Tag-Lite Binding Assay
The cell line was constructed by WuXi.
10) Dispense cells into cell plate (1.8 M cells/well in 2 ml medium of 6-well plate, total 4 wells).
Second Day: Tag-Lite Binding Assay
3) The cell culture medium is removed from the 6-well plate and then 1 mL of Tag-lite SNAP-Lumi4-Tb diluted in Tag-lite labeling medium are added gently on the cells.
7) The testing compounds and reference compound are serially diluted with 3-fold, 10 points using Echo, then transfer 100 nL compounds to the assay plate.
8) Add the labeled cells to each well according to the plate map, 10000 cells/10 uL/well. Centrifuge the plate at 1000 rpm for 1 min.
9) Incubate the plate at 23° C., 30 min.
10) Add 50 nL of red agonist (final conc.: 4.917 nM) to destination plate using Echo.
11) Incubate the plate at 23° C. for 2 h.
12) Read the plate on an HTRF® compatible reader (at 665 nm and 620 nm).
% Inhibition=100%−(Ratio−LC)/(HC−LC)*100%
HC: The average ratio of adding DMSO wells
LC: The average ratio of adding the top concentration of reference compounds wells
b) The “log (inhibitor) vs. response—Variable slope” model in GraphPad Prism 5.0 was used to fit the dose-response curve of each sample. The sample concentration (x) and its corresponding % Inhibition data (y) were substituted into the model. The sample concentration (abscissa) was x=log(x) transformed. The transformed xy was used as the sample curve to obtain the IC50.
c) Calculate the sample Ki according to the sample IC50 and red agonist Kd. S in the formula is the actual used concentration of red agonist.

T1 sequence (P43220 24-463): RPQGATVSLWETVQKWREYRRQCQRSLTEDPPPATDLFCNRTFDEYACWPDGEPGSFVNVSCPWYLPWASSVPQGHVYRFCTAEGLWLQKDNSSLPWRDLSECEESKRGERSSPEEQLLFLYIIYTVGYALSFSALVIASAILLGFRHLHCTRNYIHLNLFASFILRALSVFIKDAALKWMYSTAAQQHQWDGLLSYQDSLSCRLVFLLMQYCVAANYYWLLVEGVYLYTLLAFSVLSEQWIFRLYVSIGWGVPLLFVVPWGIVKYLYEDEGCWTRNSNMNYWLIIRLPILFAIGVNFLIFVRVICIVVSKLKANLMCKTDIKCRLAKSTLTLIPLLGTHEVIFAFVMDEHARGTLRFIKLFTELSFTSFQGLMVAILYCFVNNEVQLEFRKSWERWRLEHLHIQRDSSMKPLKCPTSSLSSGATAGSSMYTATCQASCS

Structure (SMILES)	IC50
O=C(Nc1ccc2c(c1)nc(CN1CC=C(c3cccc(OCc4ccc(Cl)cn4)n3)CC1)n2C[C@@H]1CCO1)c1ccc2[nH]c(=O)[nH]c2c1 [Compound 207]	149 nM
O=C(Nc1ccc2[nH]nnc2c1)c1ccc2c(c1)nc(CN1CC=C(c3cccc(OCc4ccc(Cl)cc4F)n3)CC1)n2C[C@@H]1CCO1 [Compound 166]	2650 nM
O=C(Nc1cc(F)c2c(c1)C1(CC1)C(=O)N2)c1ccc2c(c1)nc(CN1CC=C(c3cccc(OCc4ccc(Cl)cc4F)n3)CC1)n2C[C@@H]1CCO1 [Compound 154]	1580 nM
Cc1cc(NC(=O)c2ccc3c(c2)nc(CN2CCC(c4cccc(OCc5ccc(Cl)cc5F)n4)CC2)n3C[C@@H]2CCO2)cc2c1NC(=O)C21CC1 [Compound 105]	1940 nM
Cc1n[nH]c2c(C)cc(C(=O)Nc3ccc4c(c3)nc(CN3CC=C(c5cccc(OCc6ccc(Cl)cc6F)n5)CC3)n4C[C@@H]3CCO3)cc12 [Compound 197]	165 nM
Cc1n[nH]c2c(F)cc(C(=O)Nc3ccc4c(c3)nc(Cc3cc(F)c(-c5cccc(OCc6ccc(Cl)cc6F)n5)cc3CO)n4C[C@@H]3CCO3)cc12 [Compound 416]	54.3 nM
Cc1n[nH]c2c(C)cc(NC(=O)c3ccc4c(c3)nc(CN3CC=C(c5cccc6c5O[C@](C)(c5ccc(Cl)cn5)O6)CC3)n4CC3CCO3)cc12 (stereo partly drawn) [Compound 383]	1480 nM
Cc1n[nH]c2c(F)cc(C(=O)Nc3ccc4c(c3)nc(C3CC35CCN(c3cccc(OCc6ccc(Cl)cc6F)n3)CC5)n4CC3CCO3)cc12 (stereo not drawn) [Compound 244]	189 nM
Cc1n[nH]c2c(F)cc(NC(=O)c3ccc4c(c3)nc(CN3CCC(c5cccc(OCc6ccc(C#N)cc6F)n5)CC3)n4C[C@@H]3CCO3)cc12 [Compound 126]	1400 nM

Same assay, conditions: calculated from sample IC50 and red agonist Kd

Structure (SMILES)	Ki
O=C(Nc1ccc2c(c1)nc(CN1CC=C(c3cccc(OCc4ccc(Cl)cn4)n3)CC1)n2C[C@@H]1CCO1)c1ccc2[nH]c(=O)[nH]c2c1 [Compound 207]	82.4 nM
O=C(Nc1ccc2[nH]nnc2c1)c1ccc2c(c1)nc(CN1CC=C(c3cccc(OCc4ccc(Cl)cc4F)n3)CC1)n2C[C@@H]1CCO1 [Compound 166]	1320 nM
O=C(Nc1cc(F)c2c(c1)C1(CC1)C(=O)N2)c1ccc2c(c1)nc(CN1CC=C(c3cccc(OCc4ccc(Cl)cc4F)n3)CC1)n2C[C@@H]1CCO1 [Compound 154]	904 nM
Cc1cc(NC(=O)c2ccc3c(c2)nc(CN2CCC(c4cccc(OCc5ccc(Cl)cc5F)n4)CC2)n3C[C@@H]2CCO2)cc2c1NC(=O)C21CC1 [Compound 105]	1000 nM
Cc1n[nH]c2c(C)cc(C(=O)Nc3ccc4c(c3)nc(CN3CC=C(c5cccc(OCc6ccc(Cl)cc6F)n5)CC3)n4C[C@@H]3CCO3)cc12 [Compound 197]	84 nM
Cc1n[nH]c2c(F)cc(C(=O)Nc3ccc4c(c3)nc(Cc3cc(F)c(-c5cccc(OCc6ccc(Cl)cc6F)n5)cc3CO)n4C[C@@H]3CCO3)cc12 [Compound 416]	29.3 nM
Cc1n[nH]c2c(C)cc(NC(=O)c3ccc4c(c3)nc(CN3CC=C(c5cccc6c5O[C@](C)(c5ccc(Cl)cn5)O6)CC3)n4CC3CCO3)cc12 (stereo partly drawn) [Compound 383]	899 nM
Cc1n[nH]c2c(F)cc(C(=O)Nc3ccc4c(c3)nc(C3CC35CCN(c3cccc(OCc6ccc(Cl)cc6F)n3)CC5)n4CC3CCO3)cc12 (stereo not drawn) [Compound 244]	110 nM
Cc1n[nH]c2c(F)cc(NC(=O)c3ccc4c(c3)nc(CN3CCC(c5cccc(OCc6ccc(C#N)cc6F)n5)CC3)n4C[C@@H]3CCO3)cc12 [Compound 126]	806 nM

What follows are compounds tested against T1, GLP-1R (assay: GLP-1R agonist cAMP stimulation assay (HTRF cAMP)). Conditions: HEK293 cell line expressing GLP-1 target; HTRF cAMP agonist mode, 30 min at RT.
Assay type: cell-based
Summary of the method: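 Read-out was HTRF (665/615 ratio), interpolated onto a cAMP standard curve and normalised to DMSO (0%) and maximal GLP-1(7-37) reference (100%) wells. Assay: GLP-1R cells at 1.0×E5/mL incubated with compound dilution series (3-fold, 10 points) for 30 min at room temperature before 60 min detection.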

Structure (SMILES)	EC50
O=C(Nc1ccc2c(c1)nc(CN1CC=C(c3cccc(OCc4ccc(Cl)cn4)n3)CC1)n2C[C@@H]1CCO1)c1ccc2[nH]c(=O)[nH]c2c1 [Compound 207]	0.43 nM
O=C(Nc1ccc2[nH]nnc2c1)c1ccc2c(c1)nc(CN1CC=C(c3cccc(OCc4ccc(Cl)cc4F)n3)CC1)n2C[C@@H]1CCO1 [Compound 166]	0.76 nM
O=C(Nc1cc(F)c2c(c1)C1(CC1)C(=O)N2)c1ccc2c(c1)nc(CN1CC=C(c3cccc(OCc4ccc(Cl)cc4F)n3)CC1)n2C[C@@H]1CCO1 [Compound 154]	0.45 nM
Cc1cc(NC(=O)c2ccc3c(c2)nc(CN2CCC(c4cccc(OCc5ccc(Cl)cc5F)n4)CC2)n3C[C@@H]2CCO2)cc2c1NC(=O)C21CC1 [Compound 105]	0.78 nM
Cc1n[nH]c2c(C)cc(C(=O)Nc3ccc4c(c3)nc(CN3CC=C(c5cccc(OCc6ccc(Cl)cc6F)n5)CC3)n4C[C@@H]3CCO3)cc12 [Compound 197]	0.19 nM
Cc1n[nH]c2c(F)cc(C(=O)Nc3ccc4c(c3)nc(Cc3cc(F)c(-c5cccc(OCc6ccc(Cl)cc6F)n5)cc3CO)n4C[C@@H]3CCO3)cc12 [Compound 416]	0.37 nM
Cc1n[nH]c2c(C)cc(NC(=O)c3ccc4c(c3)nc(CN3CC=C(c5cccc6c5O[C@](C)(c5ccc(Cl)cn5)O6)CC3)n4CC3CCO3)cc12 (stereo partly drawn) [Compound 383]	1.92 nM
Cc1n[nH]c2c(F)cc(C(=O)Nc3ccc4c(c3)nc(C3CC35CCN(c3cccc(OCc6ccc(Cl)cc6F)n3)CC5)n4CC3CCO3)cc12 (stereo not drawn) [Compound 244]	0.33 nM
Cc1n[nH]c2c(F)cc(NC(=O)c3ccc4c(c3)nc(CN3CCC(c5cccc(OCc6ccc(C#N)cc6F)n5)CC3)n4C[C@@H]3CCO3)cc12 [Compound 126]	0.18 nM
Cc1n[nH]c2ccc(NC(=O)c3ccc4c(c3)nc(CN3CCC(c5cccc(OCc6ccc(C#N)c7ccccc67)n5)CC3)n4C[C@@H]3CCO3)cc12 [Compound 378]	1.03 nM
Cc1n[nH]c2c(Cl)cc(C(=O)Nc3ccc4c(c3)nc(C3CC35CCN(c3cccc(OCc6ccc(Cl)cc6F)n3)CC5)n4CC3CCO3)cc12 (stereo not drawn) [Compound 248]	1.28 nM
Cc1cc(NC(=O)c2ccc3c(n2)nc(CN2CC=C(c4cccc(OCc5ccc(Cl)cc5F)n4)CC2)n3C[C@@H]2CCO2)cc2cn[nH]c12 [Compound 137]	5.49 nM
O=C(Nc1ccc2[nH]nc(C3CC3)c2c1)c1ccc2c(c1)nc(CN1CC=C(c3cccc(OCc4ccc(Cl)cc4F)n3)CC1)n2C[C@@H]1CCO1 [Compound 162]	1.23 nM
Cc1cc(C(=O)Nc2ccc3c(c2)nc(C2CC24CCN(c2cccc(OCc5ccc(Cl)cc5F)n2)CC4)n3C[C@@H]2CCO2)cc2[nH]c(=O)[nH]c12 (stereo partly drawn) [Compound 249]	0.44 nM
Cc1cc(NC(=O)c2ccc3c(c2)nc(CN2CC=C(c4cccc(OCc5ccc(Cl)cc5F)n4)CC2)n3C[C@@H]2CCO2)cc2c(C(F)F)n[nH]c12 [Compound 169]	1.02 nM
Cc1cc(C(=O)Nc2ccc3c(c2)nc(CN2CC=C(c4cccc(OCc5ccc(C#N)cc5F)n4)CC2)n3C[C@@H]2CCO2)cc2c(C3CC3)n[nH]c12 [Compound 233]	0.92 nM
Cc1n[nH]c2c(C(F)(F)F)cc(C(=O)Nc3ccc4c(c3)nc(CN3CC=C(c5cccc(OCc6ccc(Cl)cc6F)n5)CC3)n4C[C@@H]3CCO3)cc12 [Compound 210]	0.39 nM
Cc1cc(C(=O)Nc2ccc3c(c2)nc(C2CC24CCN(c2cccc(OCc5ccc(Cl)cc5F)n2)CC4)n3C[C@@H]2CCO2)cc2c1NC(=O)C21CC1 (stereo partly drawn) [Compound 247]	0.83 nM
Cc1cc(NC(=O)c2ccc3c(c2)nc(CN2CC=C(c4cccc(OCc5ccc(Cl)cc5F)n4)CC2)n3C[C@@H]2CCO2)cc2c(C3CC3)n[nH]c12 [Compound 164]	1.68 nM
Fc1cc(Cl)ccc1COc1cccc(C2=CCN(Cc3nc4cc(-c5nc(-c6c[nH]c(C(F)(F)F)n6)co5)ccc4n3C[C@@H]3CCO3)CC2)n1 [Compound 399]	> 10000 nM
COC(=O)[C@@H]1CC(F)(F)CN1C(=O)[C@H](C)NC(=O)c1ccc2c(c1)nc(CN1CCC(c3cccc(OCc4ccc(Cl)cc4F)n3)CC1)n2C[C@@H]1CCO1 [Compound 68]	142 nM
